Source: US20220235049A1, “SUBSTITUTED PYRROLO [2, 3-b] PYRIDINE AND PYRAZOLO [3,4-b] PYRIDINE DERIVATIVES AS PROTEIN KINASE INHIBITORS” (Fochon Pharmaceuticals, Ltd., priority 2019, published 2022)

These molecules were tested on DOHH2 cells (assay: Cell proliferation assay in DOHH2 cells (MTS)). Details: 120 h.
Type: cell-based
Procedure: To investigate whether a compound is able to inhibit the activity of BTK in cells, a mechanism-based assay using DOHH2 (DSMZ catalog #: ACC47) cell was developed. In this assay, inhibition of BTK was detected by the inhibition of DOHH2 cells proliferation. Cells were collected and plated onto 96-well plates at the optimized cell density (5000 cells/well). Plates were incubated at 37° C., with 5% CO2 for 4 h. Compounds were serially diluted and added to the plates with the final concentrations as 10000, 3333.3, 1111.1, 370.4, 123.5, 41.2, 13.7, 4.6 and 1.5 nM. Plates were incubated at 37° C., with 5% CO2 for 120 h. An aliquot of 20 μL MTS/100 μL medium mixture solution were added to each well and the plates were incubated for exactly 2 h. The reaction was stopped by adding 25 μL 10% SDS to each well. The absorbance was measured by a microplate reader at 490 nm and 650 nm (reference wavelength). IC50 was calculated using GraphPad Prism 5.0.
Select compounds prepared as described above were assayed according to the biological procedures described herein.
For CCOc1cnc2[nH]cc(C(=O)c3ccc(Oc4ccccc4F)cc3C)c2c1N[C@@]12CO[C@H](CO)C1C2 (single isomer, unassigned) [Example 171], the IC50 was 2 nM.

Same assay, conditions: Homo sapiens, DOHH-2, 120 h
Molecule O=C(c1ccc(Oc2ccccc2F)cc1F)c1c[nH]c2ncc(F)c(N[C@@H]3CC[C@@H](CO)OC3)c12 [Example 115, (5-fluoro-4-(((3R,6S)-6-(hydroxymethyl)tetrahydro-2H-pyran-3-yl)amino)-1H-pyrrolo[2,3-b]pyridin-3-yl)(2-fluoro-4-(2-fluorophenoxy)phenyl)methanone] has an IC50 of 5 nM. Molecule Cc1cc(Oc2ccccc2F)ccc1C(=O)c1c[nH]c2nccc(N[C@@H]3CC[C@@H](CO)OC3)c12 [Example 46, (4-(2-fluorophenoxy)-2-methylphenyl)(4-(((3R,6S)-6-(hydroxymethyl)tetrahydro-2H-pyran-3-yl)amino)-1H-pyrrolo[2,3-b]pyridin-3-yl)methanone] has an IC50 of 1 nM. For CCOc1cnc2[nH]cc(C(=O)c3ccc(Oc4ccccc4)cc3)c2c1N[C@@H]1CC[C@@H](CO)OC1 [Example 178, (5-ethoxy-4-(((3R,6S)-6-(hydroxymethyl)tetrahydro-2H-pyran-3-yl)amino)-1H-pyrrolo[2,3-b]pyridin-3-yl)(4-phenoxyphenyl)methanone], the IC50 was 15 nM. O=C(c1ccc(Oc2ccccc2F)cc1)c1c[nH]c2ncc(Cl)c(N[C@@H]3CC[C@@H](CO)OC3)c12 [Example 98, (5-chloro-4-(((3R,6S)-6-(hydroxymethyl)tetrahydro-2H-pyran-3-yl)amino)-1H-pyrrolo[2,3-b]pyridin-3-yl)(4-(2-fluorophenoxy)phenyl)methanone] was tested, and the IC50 was 41 nM. O=C(c1ccc(Oc2c(F)cccc2F)cc1)c1c[nH]c2ncc(Cl)c(N[C@@H]3CC[C@@H](CO)OC3)c12 [Example 190, (5-chloro-4-(((3R,6S)-6-(hydroxymethyl)tetrahydro-2H-pyran-3-yl)amino)-1H-pyrrolo[2,3-b]pyridin-3-yl)(4-(2,6-difluorophenoxy)phenyl)methanone] gave an IC50 of 11 nM. COc1cnc2[nH]cc(C(=O)c3ccc(Oc4ccccc4F)cc3C)c2c1N[C@@]12CO[C@H](CO)C1C2 (single isomer, unassigned) [Example 166] showed an IC50 of 21 nM. Molecule N#Cc1cnc2[nH]cc(C(=O)c3ccc(Oc4ccccc4)c(Cl)c3Cl)c2c1N[C@@H]1CC[C@@H](CO)OC1 [Example 37, 3-(2,3-dichloro-4-phenoxybenzoyl)-4-(((3R,6S)-6-(hydroxymethyl)tetrahydro-2H-pyran-3-yl)amino)-1H-pyrrolo[2,3-b]pyridine-5-carbonitrile] has an IC50 of 48 nM. Work on Cc1cc(Oc2ccccc2F)ccc1C(=O)c1c[nH]c2ncc(Cl)c(N[C@@H]3CC[C@@H](CO)OC3)c12 [Example 87, (5-chloro-4-(((3R,6S)-6-(hydroxymethyl)tetrahydro-2H-pyran-3-yl)amino)-1H-pyrrolo[2,3-b]pyridin-3-yl)(4-(2-fluorophenoxy)-2-methylphenyl)methanone] yielded an IC50 of 17 nM. COC(=O)NC[C@@H]1CC[C@@H](Nc2c(OC)cnc3[nH]cc(C(=O)c4ccc(Oc5ccccc5F)cc4F)c23)CO1 [Example 163, methyl (((2S,5R)-5-((3-(2-fluoro-4-(2-fluorophenoxy)benzoyl)-5-methoxy-1H-pyrrolo[2,3-b]pyridin-4-yl)amino)tetrahydro-2H-pyran-2-yl)methyl)carbamate] was tested, and the IC50 was 45 nM. O=C(c1ccc(Oc2ccccc2)cc1)c1c[nH]c2nccc(N[C@@H]3CC[C@@H](CO)OC3)c12 [Example 28, (4-(((3R,6S)-6-(hydroxymethyl)tetrahydro-2H-pyran-3-yl)amino)-1H-pyrrolo[2,3-b]pyridin-3-yl)(4-phenoxyphenyl)methanone] was tested, and the IC50 was 32 nM. With O=C(c1ccc(Oc2c(F)cccc2F)cc1)c1c[nH]c2ncc(F)c(N[C@@H]3CC[C@@H](CO)OC3)c12 [Example 183, (4-(2,6-difluorophenoxy)phenyl)(5-fluoro-4-(((3R,6S)-6-(hydroxymethyl)tetrahydro-2H-pyran-3-yl)amino)-1H-pyrrolo[2,3-b]pyridin-3-yl)methanone] the IC50 was 17 nM.
